Assay results as given in patent US5019385A, “Novel lymphopine LK 2 and pharmaceutic compositions containing same” (Kabushiki Kaisha Hayashibara Seibutsu Kagaku Kenkyujo, priority 1984, dated 1991).
Structures can show the parent of a compound that is named as a salt.

Assays:
HEp#2 = assay: enhancement of antioncotic effect of chemotherapeutics by LK 2 (Experiment C-1, Table V); format: cell-based, human; conditions: ACNU 1.0×10^-6, 5-FU 1.5×10^-8, ADM 1.0×10^-10, MMC 2.5×10^-9 g/ml culture, VCR 1.5×10^-10 g/culture
Experimental: (§1) One human malignant tumor cell suspension (10^6 cells) was inoculated on 1 ml of conventional-type nutrient culture medium supplemented with foetal calf serum, and then cultured for one day. Thereafter, there was added to the culture 0.1 ml of saline containing 100 units of an LK 2 specimen, prepared by the method in Experiment A-3, and/or a chemotherapeutic, and cultured for an additional two days at 37° C.
(§2) As the control, an LK 2- and chemotherapeutic-free saline was used.
(§3) After completion of the culture, the number of viable cells was counted in accordance with the method in Experiment B-1, and the growth inhibition (%) was then determined.
(§4) The concentrations of the tested chemotherapeutics were as follows: nimustine hydrochloride (ACNU), 1.0×10^-6 g/ml culture; fluorouracil (5-FU), 1.5×10^-8 g/ml culture; doxorubicin (ADM), 1.0×10^-10 g/ml culture; mitomycin C (MMC), 2.5×10^-9 g/ml culture; and vincristine sulfate (VCR), 1.5×10^-10 g/culture.

HLE = assay: as above; format: cell-based, human; conditions: ACNU 1.0×10^-6, 5-FU 1.5×10^-8, ADM 1.0×10^-10, MMC 2.5×10^-9 g/ml culture, VCR 1.5×10^-10 g/culture
Experimental: as §1, §2, §3, §4

HeLa = assay: as above; format: cell-based, human; conditions: ACNU 1.0×10^-6, 5-FU 1.5×10^-8, ADM 1.0×10^-10, MMC 2.5×10^-9 g/ml culture, VCR 1.5×10^-10 g/culture
Experimental: as §1, §2, §3, §4

MKN 7 = assay: as above; format: cell-based, human; conditions: ACNU 1.0×10^-6, 5-FU 1.5×10^-8, ADM 1.0×10^-10, MMC 2.5×10^-9 g/ml culture, VCR 1.5×10^-10 g/culture
Experimental: as §1, §2, §3, §4

PC-8 = assay: as above; format: cell-based, human; conditions: ACNU 1.0×10^-6, 5-FU 1.5×10^-8, ADM 1.0×10^-10, MMC 2.5×10^-9 g/ml culture, VCR 1.5×10^-10 g/culture
Experimental: as §1, §2, §3, §4

[1] = system: human breast cancer tissue; assay: tumor mass in nude mice, LK 2 and/or mitomycin C (Experiment C-2, Table VI); format: in vivo, human tissue in BALB/c nude mice; conditions: MMC 1 mg/kg per day i.v., twenty days; control 10.8 ± 1.0; * significant vs control (5%)
Experimental: A group of BALB/c nude mice was transplanted subcutaneously in their dorsum areas with small fragments of human breast cancer tissue.
After the tumor masses grew to about 200 mm^3 in the bodies of the animals, saline containing an LK 2 preparation, obtained by the method described in Experiment A-3, and/or mitomycin C (MMC) was injected intravenously once every day for twenty days.
Thereafter, the animals were sacrificed, and the resultant tumor masses were weighed.
as §2

Row | Structure (SMILES) | growth inhibition (%) to tumor cell (HEp#2; +, with LK 2 100 units) | growth inhibition (%) to tumor cell (HEp#2; -, without LK 2) | growth inhibition (%) to tumor cell (HLE; +, with LK 2 100 units) | growth inhibition (%) to tumor cell (HLE; -, without LK 2) | growth inhibition (%) to tumor cell (HeLa; +, with LK 2 100 units) | growth inhibition (%) to tumor cell (HeLa; -, without LK 2) | growth inhibition (%) to tumor cell (MKN 7; +, with LK 2 100 units) | growth inhibition (%) to tumor cell (MKN 7; -, without LK 2) | growth inhibition (%) to tumor cell (PC-8; +, with LK 2 100 units) | growth inhibition (%) to tumor cell (PC-8; -, without LK 2) | Tumor mass [1]
1 | CC[C@]1(O)C[C@H]2CN(CCc3c([nH]c4ccccc34)[C@@](C(=O)OC)(c3cc4c(cc3OC)N(C=O)[C@H]3[C@@](O)(C(=O)OC)[C@H](OC(C)=O)[C@]5(CC)C=CCN6CC[C@]43[C@@H]65)C2)C1 (stereo in doubt) [VCR, vincristine sulfate] | 66% | 5% | 69% | 10% | 63% | 10% | 70% | 6% | 72% | 8% | –
2 | O=c1[nH]cc(F)c(=O)[nH]1 [5-FU, fluorouracil] | 80% | 8% | 81% | 8% | 69% | 12% | 77% | 6% | 85% | 10% | –
3 | Cc1ncc(CNC(=O)N(CCCl)N=O)c(N)n1 [ACNU, nimustine hydrochloride] | 67% | 4% | 75% | 5% | 71% | 5% | 73% | 4% | 71% | 2% | –
4 | COc1cccc2c1C(=O)c1c(O)c3c(c(O)c1C2=O)C[C@@](O)(C(=O)CO)C[C@@H]3O[C@H]1C[C@H](N)[C@H](O)[C@H](C)O1 [ADM, doxorubicin] | 70% | 13% | 73% | 7% | 62% | 7% | 69% | 5% | 71% | 6% | –
5 | CO[C@@]12[C@H](COC(N)=O)C3=C(C(=O)C(C)=C(N)C3=O)N1C[C@@H]1N[C@@H]12 [MMC, mitomycin C] | 72% | 10% | 74% | 12% | 61% | 7% | 73% | 3% | 68% | 5% | 5.1 ± 0.4 g
